Molecular target: H1047R PIK3CA enzyme (Homo sapiens, UniProt P42336, H1047R)
Assay: ADP-Glo Biochemical PIK3CA Kinase Assay
Settings: ADP-Glo biochemical PIK3CA kinase assay

H1047R PIK3CA enzyme, sequence (P42336 whole entry H1047R): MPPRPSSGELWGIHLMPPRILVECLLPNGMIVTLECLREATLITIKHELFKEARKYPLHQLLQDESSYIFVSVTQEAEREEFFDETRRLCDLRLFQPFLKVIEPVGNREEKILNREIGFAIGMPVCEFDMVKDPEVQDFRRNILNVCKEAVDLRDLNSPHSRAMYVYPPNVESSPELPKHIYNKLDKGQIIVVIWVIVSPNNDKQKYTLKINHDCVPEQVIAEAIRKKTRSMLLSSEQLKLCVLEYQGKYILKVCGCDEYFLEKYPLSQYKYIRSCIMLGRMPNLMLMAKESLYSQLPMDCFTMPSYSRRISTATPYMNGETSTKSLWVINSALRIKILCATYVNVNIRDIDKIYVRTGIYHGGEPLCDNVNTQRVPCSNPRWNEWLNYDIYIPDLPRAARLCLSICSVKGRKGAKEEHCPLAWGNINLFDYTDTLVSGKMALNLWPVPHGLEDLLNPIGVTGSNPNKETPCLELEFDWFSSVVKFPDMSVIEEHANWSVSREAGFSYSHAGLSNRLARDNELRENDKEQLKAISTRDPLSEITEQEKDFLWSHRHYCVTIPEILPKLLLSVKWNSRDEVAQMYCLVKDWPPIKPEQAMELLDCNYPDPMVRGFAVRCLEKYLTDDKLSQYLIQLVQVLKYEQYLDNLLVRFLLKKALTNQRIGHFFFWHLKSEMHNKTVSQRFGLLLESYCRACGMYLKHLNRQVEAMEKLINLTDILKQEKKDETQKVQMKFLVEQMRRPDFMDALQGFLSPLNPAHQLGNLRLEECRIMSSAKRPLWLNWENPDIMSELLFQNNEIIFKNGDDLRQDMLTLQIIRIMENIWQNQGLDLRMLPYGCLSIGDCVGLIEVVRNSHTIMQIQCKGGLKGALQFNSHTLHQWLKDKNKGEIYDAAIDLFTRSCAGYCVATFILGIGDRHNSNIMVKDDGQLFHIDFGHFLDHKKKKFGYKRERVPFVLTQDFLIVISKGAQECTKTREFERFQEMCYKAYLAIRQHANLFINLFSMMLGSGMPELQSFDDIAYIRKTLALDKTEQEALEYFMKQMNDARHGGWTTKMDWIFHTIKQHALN
H1047R PIK3CA enzyme, sequence (P27986 whole entry partner): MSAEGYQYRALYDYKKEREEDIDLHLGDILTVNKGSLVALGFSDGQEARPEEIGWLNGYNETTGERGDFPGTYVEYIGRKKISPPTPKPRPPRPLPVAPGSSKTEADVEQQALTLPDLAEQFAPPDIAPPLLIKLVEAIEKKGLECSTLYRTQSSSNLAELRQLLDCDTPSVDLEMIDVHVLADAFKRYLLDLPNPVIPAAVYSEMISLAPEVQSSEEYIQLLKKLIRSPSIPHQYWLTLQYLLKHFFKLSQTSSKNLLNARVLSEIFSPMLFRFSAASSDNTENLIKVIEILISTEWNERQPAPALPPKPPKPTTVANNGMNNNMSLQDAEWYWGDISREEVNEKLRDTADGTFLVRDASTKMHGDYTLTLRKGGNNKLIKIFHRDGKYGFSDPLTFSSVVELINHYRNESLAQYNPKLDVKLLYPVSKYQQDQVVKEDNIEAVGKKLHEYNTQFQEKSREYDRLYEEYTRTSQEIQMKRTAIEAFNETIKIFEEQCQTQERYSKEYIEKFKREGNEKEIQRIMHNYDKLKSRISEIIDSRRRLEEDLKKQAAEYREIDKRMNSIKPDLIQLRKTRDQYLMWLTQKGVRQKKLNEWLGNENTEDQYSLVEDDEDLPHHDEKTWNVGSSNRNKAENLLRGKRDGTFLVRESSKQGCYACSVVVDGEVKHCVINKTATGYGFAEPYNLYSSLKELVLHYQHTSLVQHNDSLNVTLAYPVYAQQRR

Structure (SMILES) | IC50 [µM]
CNC(=O)c1cnc(Nc2ccccc2C)c(NC(=O)c2cn(C)c3ncccc23)c1 [I-480] | 10 to 100
CNC(=O)c1cnc(Nc2ccccc2C)c(NC(=O)c2coc3cccc(Br)c23)c1 [I-483] | 10 to 100
Cc1ccccc1Nc1ncc(C(=O)NC2CCOc3ccccc32)cc1NC(=O)c1csc2ccccc12 (stereo not shown) [I-487] | 10 to 100
CNC(=O)c1cnc(Nc2ccccc2C)c(NC(=O)c2cc(C)c(F)c(C)c2)c1 [I-489] | 1 to 10
CNC(=O)c1cnc(Nc2ccccc2C)c(NC(=O)c2ncsc2C(F)(F)F)c1 [I-492] | 10 to 100
CNC(=O)c1cnc(Nc2ccccc2C)c(NC(=O)C2CCC(F)(F)CC2)c1 [I-493] | 10 to 100
CNC(=O)c1cnc(Nc2ccccc2C)c(NC(=O)c2cc(F)ccc2OC(F)(F)F)c1 [I-495] | 10 to 100
Cc1ccccc1Nc1ncc(C(=O)Nc2cnn3cccc(F)c23)cc1NC(=O)c1csc2ccccc12 [I-500] | 10 to 100
CNC(=O)c1cnc(Nc2ccccc2C)c(NC(=O)c2cn3cccc(Br)c3n2)c1 [I-509] | 10 to 100
Cc1ccccc1Nc1ncc(C(=O)NCC2(C#N)CCCC2)cc1NC(=O)c1csc2ccccc12 [I-511] | 10 to 100
CCOc1c(F)c(F)cc(C(=O)Nc2cc(C(=O)NC)cnc2Nc2ccccc2C)c1F [I-512] | 10 to 100
CNC(=O)c1cnc(Nc2ccccc2C)c(NC(=O)c2ccc(Br)c3cccnc23)c1 [I-516] | 10 to 100
CNC(=O)c1cnc(Nc2ccccc2C)c(NC(=O)c2cccc3ccn(C)c23)c1 [I-518] | 10 to 100
Cc1ccccc1Nc1ncc(C(=O)Nc2c3c(nn2C)CCC3)cc1NC(=O)c1csc2ccccc12 [I-521] | 10 to 100
CNC(=O)c1cnc(Nc2ccccc2C)c(NC(=O)c2[nH]c3ccccc3c2Br)c1 [I-522] | 10 to 100
CNC(=O)c1cnc(Nc2ccccc2C)c(NC(=O)c2cccc3c2OC(C)(C)C3)c1 [I-529] | 10 to 100
Cc1ccccc1Nc1ncc(C(=O)NCC2CCC(F)(F)C2)cc1NC(=O)c1csc2ccccc12 (stereo not shown) [I-531] | 10 to 100
Cc1ccccc1Nc1ncc(C(=O)N2CC(C)(F)C2)cc1NC(=O)c1csc2ccccc12 [I-536] | 1 to 10
COC1CN(C(=O)c2cnc(Nc3ccccc3C)c(NC(=O)c3csc4ccccc34)c2)C1 [I-541] | 1 to 10
Cc1ccccc1Nc1ncc(C(=O)N2CC(C)(C#N)C2)cc1NC(=O)c1csc2ccccc12 [I-543] | 1 to 10
Cc1ccccc1Nc1c(NC(=O)c2csc3ccccc23)ccn(C)c1=O [I-548] | 1 to 10
COc1ccc(SC2(C(=O)O)CC(=O)NC2c2ccccc2C)cc1 (stereo not shown) [I-549] | 1 to 10
CNC(=O)c1cnc(NCCC#N)c(NC(=O)c2cc(F)cc(C(F)(F)F)c2)c1 [I-550] | 1 to 10
CNC(=O)c1cnc(Nc2ccccc2C)c(NC(=O)c2csc3cncnc23)c1 [I-551] | 1 to 10
Cc1ccccc1Nc1c(NC(=O)c2csc3ccccc23)ccc2cc[nH]c12 [I-552] | 1 to 10

Structure (SMILES) | IC50 [µM]
Cc1ccccc1Nc1nnccc1NC(=O)c1csc2ccccc12 [I-553] | 1 to 10
Cc1ccccc1Nc1ncc(C(=O)N[C@@H]2C3CCC(C3)[C@H]2C(=O)O)cc1NC(=O)c1csc2ccccc12 (stereo partly shown) [I-559] | 1 to 10
Cc1ccccc1Nc1ncc(C(=O)NCC2(O)CCCC2)cc1NC(=O)c1csc2ccccc12 [I-562] | 0.5 to 1
Cc1ccccc1Nc1ncc(C(=O)NCC(C)(C)O)cc1NC(=O)c1csc2ccccc12 [I-565] | 1 to 10
Cc1ccccc1Nc1ncc(C(=O)NC2CCN(C)C2)cc1NC(=O)c1csc2ccccc12 (stereo not shown) [I-574] | 1 to 10
CNC(=O)c1cnc(Nc2ccccc2C)c(NC(=O)c2ccc3ncc(Br)n3c2)c1 [I-575] | 0.5 to 1
Cc1ccccc1Nc1ncc(C(=O)N2CC3(COC3)C2)cc1NC(=O)c1csc2ccccc12 [I-576] | 1 to 10
Cc1ccccc1Nc1ncc(C(=O)NCc2ncccn2)cc1NC(=O)c1csc2ccccc12 [I-586] | 0.5 to 1
Cc1ccccc1Nc1ncc(C(=O)N2CCC(C)(O)C2)cc1NC(=O)c1csc2ccccc12 (stereo not shown) [I-589] | 1 to 10
Cc1ccccc1Nc1ncc(C(=O)N2CC(C(=O)O)C2)cc1NC(=O)c1csc2ccccc12 [I-600] | 1 to 10
Cc1ccccc1Nc1ncc(C(=O)Nc2ncnn2C)cc1NC(=O)c1csc2ccccc12 [I-606] | 1 to 10
Cc1cc(CC(C)NC(=O)c2cnc(Nc3ccccc3C)c(NC(=O)c3csc4ccccc34)c2)on1 (stereo not shown) [I-614] | 1 to 10
COCC1CN(C(=O)c2cnc(Nc3ccccc3C)c(NC(=O)c3csc4ccccc34)c2)C1 [I-615] | 1 to 10
Cc1ccccc1Nc1ncc(C(=O)N[C@H]2CC[C@]3(CCC(=O)N3)CC2)cc1NC(=O)c1csc2ccccc12 [I-617] | 1 to 10
Cc1ccccc1Nc1ncc(C(=O)N2CC(C)(O)C2)cc1NC(=O)c1csc2ccccc12 [I-620] | 1 to 10
Cc1ccccc1Nc1ncc(C(=O)N2CCC(F)C2)cc1NC(=O)c1csc2ccccc12 (stereo not shown) [I-623] | 0.5 to 1
Cc1ccccc1Nc1ncc(C(=O)N2CC(CF)C2)cc1NC(=O)c1csc2ccccc12 [I-628] | 1 to 10
Cc1ccccc1Nc1ncc(C(=O)O)cc1NC(=O)c1csc2ccccc12 [I-629] | 1 to 10
Nc1cc(C(=O)NC2CS(=O)(=O)C2)cnc1N1CCOc2ccccc21 [I-630] | 1 to 10
O=C(O)c1cnc(N2CCOc3ccccc32)c(NC(=O)c2csc3ccccc23)c1 [I-631] | 1 to 10
Nc1cc(C(=O)O)cnc1N1CCOc2ccccc21 [I-632] | 1 to 10
O=C(NC1CC(F)(F)C1)c1cnc(Nc2ccccc2Cl)c(NC(=O)c2csc3ccccc23)c1 [I-641] | 1 to 10
CNC(=O)c1cnc(Nc2ccccc2C)c(NC(=O)c2nc3cccc(C(F)(F)F)n3n2)c1 [I-642] | 1 to 10
CNC(=O)c1cnc(Nc2ccccc2C)c(NC(=O)c2ccn3ccnc3c2)c1 [I-647] | 1 to 10
CNC(=O)c1cnc(Nc2ccccc2C)c(NC(=O)C2CCc3ccccc3O2)c1 (stereo not shown) [I-649] | 1 to 10

Further lines, results first:

IC50 [µM] | Structure (SMILES)
10 to 100 | CNC(=O)c1cnc(Nc2ccccc2C)c(NC(=O)C2(c3ccc(F)c(F)c3)CC2)c1 [I-481]
10 to 100 | CNC(=O)c1cnc(Nc2ccccc2C)c(NC(=O)CC(C)Oc2ccccc2)c1 (stereo not shown) [I-482]
10 to 100 | CNC(=O)c1cnc(Nc2ccccc2C)c(NC(=O)c2ccc(C(F)F)cn2)c1 [I-484]
10 to 100 | CNC(=O)c1cnc(Nc2ccccc2C)c(NC(=O)c2cc3c(Br)cccc3[nH]2)c1 [I-485]
10 to 100 | CNC(=O)c1cnc(Nc2ccccc2C)c(NC(=O)c2cc3cc(F)ccc3o2)c1 [I-488]
10 to 100 | CNC(=O)c1cnc(Nc2ccccc2C)c(NC(=O)c2ccc3occ(Cl)c3c2)c1 [I-490]
10 to 100 | CNC(=O)c1cnc(Nc2ccccc2C)c(NC(=O)c2cc(C)cc(F)c2F)c1 [I-491]
10 to 100 | CNC(=O)c1cnc(Nc2ccccc2C)c(NC(=O)c2cccc3ccoc23)c1 [I-494]
10 to 100 | CNC(=O)c1cnc(Nc2ccccc2C)c(NC(=O)CCc2cc(F)ccc2Br)c1 [I-497]
10 to 100 | CNC(=O)c1cnc(Nc2ccccc2C)c(NC(=O)Cc2cccc(Br)c2F)c1 [I-501]
10 to 100 | CNC(=O)c1cnc(Nc2ccccc2C)c(NC(=O)Cc2ccc(F)cc2C(F)(F)F)c1 [I-502]
10 to 100 | CNC(=O)c1cnc(Nc2ccccc2C)c(NC(=O)C2(c3cccc(Br)c3)CC2)c1 [I-503]
10 to 100 | CNC(=O)c1cnc(Nc2ccccc2C)c(NC(=O)c2ccc3c(c2)CCN3C)c1 [I-504]
10 to 100 | CNC(=O)c1cnc(Nc2ccccc2C)c(NC(=O)c2cc3ccccc3n2C)c1 [I-505]
1 to 10 | CNC(=O)c1cnc(Nc2ccccc2C)c(NC(=O)c2cc3c(Cl)cc(Cl)cc3[nH]2)c1 [I-507]
10 to 100 | CNC(=O)c1cnc(Nc2ccccc2C)c(NC(=O)C2(c3cccc(Cl)c3)CC2)c1 [I-513]
10 to 100 | CNC(=O)c1cnc(Nc2ccccc2C)c(NC(=O)c2c[nH]c3ccc(Cl)cc23)c1 [I-514]
10 to 100 | CNC(=O)c1cnc(Nc2ccccc2C)c(NC(=O)CCc2cc(Cl)ccc2Cl)c1 [I-517]
10 to 100 | CNC(=O)c1cnc(Nc2ccccc2C)c(NC(=O)c2ccc3c(ccn3C)c2)c1 [I-523]

IC50 [µM] | Structure (SMILES)
10 to 100 | CNC(=O)c1cnc(Nc2ccccc2C)c(NC(=O)c2ccc(C(F)(F)F)n2C)c1 [I-524]
10 to 100 | CNC(=O)c1cnc(Nc2ccccc2C)c(NC(=O)c2c[nH]c3cccc(Cl)c23)c1 [I-528]
10 to 100 | CNC(=O)c1cnc(Nc2ccccc2C)c(NC(=O)c2ccc(Cl)c(C)c2F)c1 [I-537]
10 to 100 | CNC(=O)c1cnc(Nc2ccccc2C)c(NC(=O)CCc2cc(Br)ccc2F)c1 [I-542]
1 to 10 | CNC(=O)c1cnc(Nc2ccccc2C)c(NC(=O)c2nc(Cl)cc3ccccc23)c1 [I-555]
1 to 10 | CNC(=O)c1cnc(Nc2ccccc2C)c(NC(=O)c2cc(C)cc(C#N)c2)c1 [I-556]
1 to 10 | CNC(=O)c1cnc(Nc2ccccc2C)c(NC(=O)Cc2cc3cccnc3cc2F)c1 [I-557]
1 to 10 | CNC(=O)c1cnc(Nc2ccccc2C)c(NC(=O)Cc2ccc3ncccc3c2)c1 [I-558]
1 to 10 | CNC(=O)c1cnc(Nc2ccccc2C)c(NC(=O)c2cccc(F)c2Cl)c1 [I-566]
1 to 10 | CNC(=O)c1cnc(Nc2ccccc2C)c(NC(=O)c2ccc(CO)c(F)c2)c1 [I-567]
1 to 10 | CNC(=O)c1cnc(Nc2ccccc2C)c(NC(=O)c2cccc(COC)c2)c1 [I-577]
1 to 10 | CNC(=O)c1cnc(Nc2ccccc2C)c(NC(=O)Cc2cc(Cl)cc(C(F)(F)F)c2)c1 [I-587]
1 to 10 | CNC(=O)c1cnc(Nc2ccccc2C)c(NC(=O)Cc2cc(Br)ccc2Cl)c1 [I-595]
1 to 10 | CNC(=O)c1cnc(Nc2ccccc2C)c(NC(=O)CCc2ccncc2C)c1 [I-643]
1 to 10 | CNC(=O)c1cnc(Nc2ccccc2C)c(NC(=O)c2onc3ccccc23)c1 [I-644]
1 to 10 | CNC(=O)c1cnc(Nc2ccccc2C)c(NC(=O)c2ccc3cnccc3n2)c1 [I-645]
1 to 10 | CNC(=O)c1cnc(Nc2ccccc2C)c(NC(=O)Cn2ccccc2=O)c1 [I-646]
1 to 10 | CNC(=O)c1cnc(Nc2ccccc2C)c(NC(=O)c2ccc3cnccc3c2)c1 [I-648]
1 to 10 | CNC(=O)c1cnc(Nc2ccccc2C)c(NC(=O)c2ccnc(C(F)F)c2)c1 [I-650]
